Common to all, as to assay type: cell-based, human
One test relates to FGFR signaling pathway. Briefly: CELx multiple pathway test, impedance biosensor cell adhesion, FGF/BGJ398 pair. To be noted: activator FGF. The text has this: (§1) Biosensor and transducer: A 96-well impendence E-Plate (ACEA, San Diego, CA) was placed onto an xCELLigence RTCA MP Station impendence biosensor (ACEA, San Diego, CA). The biosensor measured simultaneously the impedance of every well. The change in impedance for a particular well is proportional to the number of cells and type of attachment the cells have with the impedance microplate. Changes in impedance indicate a response to perturbation of these small cell populations. Coatings: The 96-E-Plate were wells were coated with fibronectin and or collagen. Collagen is purchased from Advanced BioMatrix (Carlsbad, CA) and fibronectin from Sigma-Aldrich (St. Louis, MO). Tissue and cell samples: A total of 18 samples of human tumor cells from breast, lung, colon, ovarian, kidney, bladder cancer were studied. For each of these six different cancer types, tumor cell samples from three different patients were tested. Any biomarkers that are used to guide selection of targeted therapy are listed in Table 18 for each patient if they were present. Signaling Pathways activator agent and targeted therapeutic pairs: Eleven different signaling pathways were studied in each human tumor cell sample using […] signaling pathway activator agent and targeted therapeutic pairs. Each of the signaling pathway activator agent and targeted therapeutic pairs affect the same signaling pathway. Each of the signaling pathway activator agents is a well-characterized and specific agonist of its associated signaling pathway and each of the targeted therapeutic agents is a well-characterized and specific antagonist of the same associated signaling pathway. The signaling pathway activator agents and targeted therapeutics used to characterize the activity level of the associated signaling pathway are summarized in Table 16 below:
(§2) Other Reagents: Standard media antibiotics (e.g. penicillin, streptomycin) and other buffers were purchased and used as delivered from ATCC (Manassas, VA, USA) or Life Technologies (Grand Island, NY). Procedure: For each test of a patient cell sample with a pair of signaling pathway activator and targeted therapeutic agents, six wells were seeded with approximately 15,000 cells in 120 uL culture media. Twenty microliters of the targeted therapeutic agent were added to two wells of each patient's cells and 20 microliters of standard media were added to the other four wells for each patient 18 hours in advance of addition of the signaling pathway activator agent. Signaling pathway stimulation was initiated with the addition of 20 ul of the signaling pathway activator agent in the two wells that received a targeted therapeutic agent and in two additional wells for each patient's set of cells without the targeted therapeutic. The impedance recording of attachment and adhesion change was performed at 37° C., 5% C02. Data was recorded on a continuous basis throughout the test, where the data presented is from the initial baseline level of cell attachment compared to the subsequent effects following the targeted therapeutic agent and the signaling pathway activator agent additions on the 18 different patient samples. Results:
(§3) Table 17 presents the results, expressed as an output value, for each of the 167 tests performed using the methods described above. For each of the 18 patient samples, up to 11 different signaling pathways were tested. The output value represents the difference between the amount of cell adhesion change resulting from addition of the signaling pathway activator agent and the amount of cell adhesion change resulting from addition of the targeted therapeutic agent.

For another test, the system named is IGFR signaling pathway. As to the kind of experiment: CELx multiple pathway test, impedance biosensor cell adhesion, IGF/Linsitinib pair. The note with it: activator IGF.
Description: as §1, §2, §3

The test system of a further test is EGFR signaling pathway. Briefly: CELx multiple pathway test, impedance biosensor cell adhesion, EGF/Neratinib pair. The note with it: activator EGF.
Description: as §1
as §2, with “samples.” for “samples. Results:”
(§4) For each of the 18 patient samples, up to 11 different signaling pathways were tested. The output value represents the difference between the amount of cell adhesion change resulting from addition of the signaling pathway activator agent and the amount of cell adhesion change resulting from addition of the targeted therapeutic agent.

For the next test, the system named is HER3 signaling pathway. As to the kind of experiment: CELx multiple pathway test, impedance biosensor cell adhesion, NRG1/Neratinib pair. The note with it: activator NRG1.
Description: as §1, §2, §3

The test system of test [1] is c-MET/HGF signaling pathway. Briefly: CELx multiple pathway test, impedance biosensor cell adhesion, HGF/SGX-523 pair. To be noted: activator HGF.
Description: as §1
as §2, with “samples.” for “samples. Results:”
as §4

Regarding `CCN1CCN(c2ccc(Nc3cc(N(C)C(=O)Nc4c(Cl)c(OC)cc(OC)c4Cl)ncn3)cc2)CC1` [BGJ398], the output value with FGFR signaling pathway (C2 breast tumor cells) is 14; in the test with FGFR signaling pathway (C21 breast tumor cells) it was 15; in the test on FGFR signaling pathway (C23 lung tumor cells), 1; in the test with FGFR signaling pathway (C24 lung tumor cells) it was −6; in the test with FGFR signaling pathway (C25 lung tumor cells), 14; in the test with FGFR signaling pathway (C34 breast tumor cells) it was 33. For the same molecule, the output value in the test with FGFR signaling pathway (C54 ovarian tumor cells) is recorded as 65; in the test on FGFR signaling pathway (C62 colorectal tumor cells) it was 4; in the test on FGFR signaling pathway (C69 ovarian tumor cells) it was −19; with FGFR signaling pathway (C71 colorectal tumor cells), 43; in the test on FGFR signaling pathway (C72 colorectal tumor cells) it was −20; in the test with FGFR signaling pathway (C77 ovarian tumor cells), 12. The output value in the test on FGFR signaling pathway (C81 bladder tumor cells) was 75; in the test on FGFR signaling pathway (C82 bladder tumor cells), −94; with FGFR signaling pathway (C87 bladder tumor cells), 8; in the test on FGFR signaling pathway (C88 kidney tumor cells), 251; with FGFR signaling pathway (C90 kidney tumor cells), −47; in the test on FGFR signaling pathway (C92 kidney tumor cells) it was 6.
With `C[C@]1(O)C[C@@H](c2nc(-c3ccc4ccc(-c5ccccc5)nc4c3)c3c(N)nccn32)C1` [Linsitinib], the output value in the test on IGFR signaling pathway (C2 breast tumor cells) is reported as 20; in the test on IGFR signaling pathway (C21 breast tumor cells) it was 69; in the test on IGFR signaling pathway (C23 lung tumor cells) it was 32; with IGFR signaling pathway (C24 lung tumor cells), −61; in the test on IGFR signaling pathway (C25 lung tumor cells), −44; in the test with IGFR signaling pathway (C34 breast tumor cells), 34. Besides, the output value in the test on IGFR signaling pathway (C54 ovarian tumor cells) is listed as −8; in the test on IGFR signaling pathway (C62 colorectal tumor cells) it was 6; in the test on IGFR signaling pathway (C69 ovarian tumor cells) it was −111; with IGFR signaling pathway (C71 colorectal tumor cells), −2; with IGFR signaling pathway (C72 colorectal tumor cells) it was −22; with IGFR signaling pathway (C77 ovarian tumor cells), 56. For the same molecule, the output value was 351 in the test with IGFR signaling pathway (C81 bladder tumor cells); 21 in the test with IGFR signaling pathway (C82 bladder tumor cells); 210 in the test with IGFR signaling pathway (C87 bladder tumor cells); 143 in the test on IGFR signaling pathway (C88 kidney tumor cells); −607 in the test with IGFR signaling pathway (C90 kidney tumor cells); 73 with IGFR signaling pathway (C92 kidney tumor cells).
As to `CCOc1cc2ncc(C#N)c(Nc3ccc(OCc4ccccn4)c(Cl)c3)c2cc1NC(=O)/C=C/CN(C)C` [Neratinib], the output value was −19 in the test on EGFR signaling pathway (C2 breast tumor cells); 503 with EGFR signaling pathway (C21 breast tumor cells); 298 in the test with EGFR signaling pathway (C23 lung tumor cells); 245 with EGFR signaling pathway (C24 lung tumor cells); 209 in the test with EGFR signaling pathway (C25 lung tumor cells); 247 in the test with EGFR signaling pathway (C34 breast tumor cells). The output value is reported as 654 in the test on EGFR signaling pathway (C54 ovarian tumor cells); 28 in the test with EGFR signaling pathway (C62 colorectal tumor cells); 614 with EGFR signaling pathway (C69 ovarian tumor cells); 179 in the test on EGFR signaling pathway (C71 colorectal tumor cells); 5 in the test on EGFR signaling pathway (C72 colorectal tumor cells); −78 in the test on EGFR signaling pathway (C77 ovarian tumor cells). In addition, the output value is 344 in the test on EGFR signaling pathway (C81 bladder tumor cells); 345 in the test on EGFR signaling pathway (C82 bladder tumor cells); 334 with EGFR signaling pathway (C87 bladder tumor cells); −67 in the test with EGFR signaling pathway (C88 kidney tumor cells); 150 in the test on EGFR signaling pathway (C90 kidney tumor cells); 290 with EGFR signaling pathway (C92 kidney tumor cells). For the same molecule, the output value in the test on HER3 signaling pathway (C2 breast tumor cells) was −1; in the test on HER3 signaling pathway (C21 breast tumor cells), 234; in the test on HER3 signaling pathway (C23 lung tumor cells), 373; with HER3 signaling pathway (C24 lung tumor cells) it was 194; in the test on HER3 signaling pathway (C25 lung tumor cells) it was 116; in the test on HER3 signaling pathway (C34 breast tumor cells), 4. Further, the output value in the test with HER3 signaling pathway (C54 ovarian tumor cells) came out at 244; in the test on HER3 signaling pathway (C62 colorectal tumor cells), 2; in the test with HER3 signaling pathway (C69 ovarian tumor cells) it was 178; in the test on HER3 signaling pathway (C71 colorectal tumor cells), 28; in the test on HER3 signaling pathway (C72 colorectal tumor cells), 5; in the test on HER3 signaling pathway (C77 ovarian tumor cells), 128. The output value is listed as 13 in the test with HER3 signaling pathway (C81 bladder tumor cells); 31 with HER3 signaling pathway (C82 bladder tumor cells); 10 with HER3 signaling pathway (C87 bladder tumor cells); 5 with HER3 signaling pathway (C88 kidney tumor cells); −32 with HER3 signaling pathway (C90 kidney tumor cells); 36 in the test with HER3 signaling pathway (C92 kidney tumor cells).
As to `Cn1cc(-c2ccc3nnc(Sc4ccc5ncccc5c4)n3n2)cn1` [SGX-523], the output value in test [1] (C2 breast tumor cells) worked out at 0; in test [1] (C21 breast tumor cells), 222; in test [1] (C23 lung tumor cells), 469; in test [1] (C24 lung tumor cells) it was 78; in test [1] (C25 lung tumor cells) it was 132; in test [1] (C34 breast tumor cells) it was 6. Also, the output value in test [1] (C54 ovarian tumor cells) is reported as 123; in test [1] (C62 colorectal tumor cells), −6; in test [1] (C69 ovarian tumor cells) it was −27; in test [1] (C71 colorectal tumor cells), 53; in test [1] (C72 colorectal tumor cells) it was −110; in test [1] (C77 ovarian tumor cells), 227. The output value in test [1] (C81 bladder tumor cells) was 419; in test [1] (C82 bladder tumor cells) it was 41; in test [1] (C87 bladder tumor cells), 28; in test [1] (C88 kidney tumor cells), −13; in test [1] (C90 kidney tumor cells), 368; in test [1] (C92 kidney tumor cells) it was 154.

The values are drawn from patent US12320799B2, “Methods of measuring signaling pathway activity for selection of therapeutic agents” (Celcuity Inc., priority 2017, dated 2025).
